pKd: −log10 of the molar value. Several values for one entry are separate records, joined by “and”; a condition that tells them apart may be missing. Equal entries are not always repeated.
Assays:
human Ptch1 = biological target: T1, human Ptch1 (Homo sapiens, UniProt Q13635); assay: Microscale thermophoresis on membranes from yeast expressing human Ptch1; type: binding; details: membranes from yeast expressing hPtch1; MST; mean of 3 experiments
T1 construct: made in house; host or cells: yeast (membrane preparation)
T1 sequence (Q13635 1-1447): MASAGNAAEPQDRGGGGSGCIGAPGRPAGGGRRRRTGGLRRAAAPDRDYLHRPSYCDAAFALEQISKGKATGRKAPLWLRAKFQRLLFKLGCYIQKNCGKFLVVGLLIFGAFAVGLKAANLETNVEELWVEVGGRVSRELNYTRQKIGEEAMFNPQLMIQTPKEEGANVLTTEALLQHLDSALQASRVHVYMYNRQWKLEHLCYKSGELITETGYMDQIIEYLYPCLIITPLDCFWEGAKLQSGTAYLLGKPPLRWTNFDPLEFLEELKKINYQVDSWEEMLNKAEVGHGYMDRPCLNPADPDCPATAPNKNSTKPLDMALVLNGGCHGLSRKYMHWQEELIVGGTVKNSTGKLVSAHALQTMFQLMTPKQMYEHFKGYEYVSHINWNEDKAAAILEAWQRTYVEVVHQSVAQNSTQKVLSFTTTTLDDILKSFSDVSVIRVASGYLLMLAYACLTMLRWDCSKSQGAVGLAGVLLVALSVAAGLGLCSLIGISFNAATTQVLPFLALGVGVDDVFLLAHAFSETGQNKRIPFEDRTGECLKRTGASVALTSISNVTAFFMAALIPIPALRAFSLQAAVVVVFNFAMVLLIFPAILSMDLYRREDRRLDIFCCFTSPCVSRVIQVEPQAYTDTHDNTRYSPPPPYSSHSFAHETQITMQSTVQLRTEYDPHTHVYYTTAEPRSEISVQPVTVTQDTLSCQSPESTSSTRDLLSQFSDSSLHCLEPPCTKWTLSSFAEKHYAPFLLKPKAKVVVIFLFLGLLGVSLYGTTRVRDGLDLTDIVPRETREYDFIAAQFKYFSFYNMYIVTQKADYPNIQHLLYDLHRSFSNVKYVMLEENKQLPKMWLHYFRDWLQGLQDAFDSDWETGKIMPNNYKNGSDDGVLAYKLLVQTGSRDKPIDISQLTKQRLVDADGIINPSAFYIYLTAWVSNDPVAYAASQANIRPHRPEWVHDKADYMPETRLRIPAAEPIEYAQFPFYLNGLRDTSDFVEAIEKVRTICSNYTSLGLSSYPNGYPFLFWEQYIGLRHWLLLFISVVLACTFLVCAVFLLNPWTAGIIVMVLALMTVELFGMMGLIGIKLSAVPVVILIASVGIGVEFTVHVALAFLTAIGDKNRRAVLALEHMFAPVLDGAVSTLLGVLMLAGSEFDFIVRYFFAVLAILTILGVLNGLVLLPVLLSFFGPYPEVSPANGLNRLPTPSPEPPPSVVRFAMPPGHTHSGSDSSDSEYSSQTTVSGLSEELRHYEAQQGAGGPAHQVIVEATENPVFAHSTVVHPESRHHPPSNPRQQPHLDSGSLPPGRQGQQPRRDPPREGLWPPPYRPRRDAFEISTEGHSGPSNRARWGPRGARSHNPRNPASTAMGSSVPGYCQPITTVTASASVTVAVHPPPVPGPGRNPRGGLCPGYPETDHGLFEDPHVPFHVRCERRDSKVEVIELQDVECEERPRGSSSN
Method: Microscale thermophoresis (MST) is a biophysical technique that measures the strength of the interaction between two molecules by detecting a variation in the fluorescence signal of a fluorescently labeled target as a result of an IR-laser induced temperature change. The range of the variation in the fluorescence signal correlates with the binding of a ligand to the fluorescent target.
Membranes from yeast expressing human Ptch1 or human Smoothened were incubated at 30 µg/mL with 20 nM of the fluorescent dye NT-647 2nd gen (NanoTemper Technologies, München, Germany) to label the His-tag present at the c-terminus of both proteins. […] The fluorescence within the capillary is excited and detected through the same objective. […] The MST response of fluorescent proteins within the temperature gradient is detected. After activation of the IR laser, a decrease in fluorescence is observed which corresponds to temperature-related intensity change (TRIC) triggered by the fast temperature change and thermophoretic movement of the fluorescent proteins out of the heated sample volume. […] For analysis, the change in MST signal is expressed as the change in the normalized fluorescence (Fnorm), which is defined as F1/F0. […] The sPAH Kd was determined for 3 independent experiments.

[1] = Metabolic stability with mice liver microsomes and NADPH; type: in vitro ADME
Method: A 10 µL aliquot of the sPAH stock solution (10 mM in DMSO) was diluted in 990 µL of a mixture of acetonitrile and water. This solution was then diluted 100-fold in phosphate buffer containing mice liver microsomes (0.5 mg/mL), 1 mM NADPH, and 3 mM MgCl2, and incubated at 37 °C. After 2, 10, 20, 40, and 60 min, 70 µL aliquots were collected and mixed with 70 µL acetonitrile at 0 °C. Equivalent experiments were performed without NADPH in order to identify chemical instability or enzymatic process not depending on NADPH, and with testosterone as a positive control. The enzymatic reaction was stopped by addition of acetonitrile. Samples were analyzed by LC–MS/MS on an UHPLC LC–MS 8030 (Shimazu, Kyoto, Japan).
For metabolite identification, 50 µM of sPAH were incubated with mice liver microsomes and NADPH. Two samples were prepared: one in which acetonitrile was added immediately (t0) and one in which acetonitrile was added after 30 min. After centrifugation for 5 min at 15,000× g, 2 samples of each supernatant were analyzed by LC–MS/MS on a LC–MS 8030 (Shimazu, Kyoto, Japan) and detected by selected ion monitoring (SIM).

Question: With COc1cc(C)c(CC/C(C)=C/Cc2cc(O)ccc2O)c(C)c1C [sPAH, Panicein A hydroquinone] as the compound, how does the pKd (human Ptch1) read?
Answer: ~5.15 and 5.14

Question: And the “metabolic fate (LC-MS/MS)” value ([1]; 50 µM, mice liver microsomes and NADPH, 30 min)?
Answer: rapidly oxidized in its quinone form

Question: What about the half-life at 1 µM ([1]; mouse, liver microsomes, mice microsomes and NADPH, 37 °C) of the same compound?
Answer: 1 min

— PMC7352342, “Inhibition of Patched Drug Efflux Increases Vemurafenib Effectiveness against Resistant Braf^V600E Melanoma” (Cancers, 2020)
